The source of these data is BindingDB's records for doi:10.1021/jm9707232 (Sapienza University of Rome, 1998).

In this experiment the target is Integrase (Human immunodeficiency virus 1, UniProt Q7ZJM1). The experiment is described as follows: Compound concentration required to reduce HIV-1 Integrase 3'-processing activity by 50%.
Integrase, sequence (Q7ZJM1 whole entry): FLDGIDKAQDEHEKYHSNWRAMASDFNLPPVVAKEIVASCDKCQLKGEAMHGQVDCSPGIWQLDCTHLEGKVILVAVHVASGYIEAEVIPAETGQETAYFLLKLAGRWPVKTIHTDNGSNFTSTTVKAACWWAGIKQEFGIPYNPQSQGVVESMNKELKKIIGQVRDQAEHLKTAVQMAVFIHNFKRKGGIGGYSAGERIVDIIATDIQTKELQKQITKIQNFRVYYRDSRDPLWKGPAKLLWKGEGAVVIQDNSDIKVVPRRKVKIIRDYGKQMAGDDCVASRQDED

`O=C(C=Cc1ccccc1)CC(=O)C=Cc1ccccc1` [5-Hydroxy-1,7-diphenylhepta-1,4,6-trien-3-one] had an IC50 of more than 100 µM. The same measure for `COc1ccc(C=CC(=O)CC(=O)C=Cc2ccc(OC)c(OC)c2)cc1OC` [(1E,4Z,6E)-1,7-bis(3,4-dimethoxyphenyl)-5-hydroxyhepta-1,4,6-trien-3-one]: more than 100 µM.
